Read-outs that look alike come from different tables or passages of the source.
Assays:
Tet(X4) = Tet(X4) (Escherichia coli, UniProt A0A3T0V9Y5); test: FP competitive displacement of probe 6; format: binding
How it was run: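 FP displacement of probe 6 (added as 50 nM solution) from Tet(X4) (2× mix: 80 nM enzyme, 2 μM FAD, 10 mM MgCl2), 30 min at ambient temperature. Dose-response used 3-fold, 10-point DMSO series (top 5 or 0.5 mM stock). IC50^app came from a Hill fit of control-normalised response. Library screening used 10 μM compound, 0.1% DMSO, […].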

[1] = system: E. coli TOP10 containing plasmid pBAD-TOPO-Tet(X4); test: Broth microdilution MIC and checkerboard assay; format: cell-based, Escherichia coli; conditions: for MIC: Escherichia coli; for Combination (antibiotic/inhibitor) MIC: inhibitor: inhibitor in combination with tigecycline; for Combination (antibiotic/inhibitor) MIC: inhibitor / Combination (antibiotic/inhibitor) MIC: antibiotic: lowest FICI; for Combination (antibiotic/inhibitor) MIC: antibiotic: tigecycline in combination with the inhibitor; for FICI / Outcome: with tigecycline
How it was run: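 E. coli TOP10 with pBAD-TOPO-Tet(X4), […], tested by CLSI broth microdilution in CAMHB, ~1.5 × 10^6 cfu mL^−1 inoculum, 37 °C, 18 h. Checkerboard of seven 2-fold inhibitor dilutions × ten dilutions; growth read visually ± resazurin; FICI = FICA + FICB.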

[2] = system: Acinetobacter baumannii NT5-1 – tet(X5); test: microbe, parasite or virus in culture; format: cell-based
[3] = system: Escherichia coli T-24a – tet(X4); test: microbe, parasite or virus in culture; format: cell-based
[4] = system: Proteus penneri NT6-2 – tet(X6); test: microbe, parasite or virus in culture; format: cell-based
[5] = inhibitor in combination with tigecycline, lowest FICI
[6] = tigecycline in combination with the inhibitor, lowest FICI

## Cc1c2c(c(O)c3c(O)cccc13)C(=O)[C@]1(O)C(=O)C(C(N)=O)=C(O)[C@@H](N(C)C)[C@@H]1C2 [Anhydrotetracycline]
Tet(X4); IC50app, FP assay, 25 nM 6, 40 nM Tet(X4), 5 mM MgCl2, 1 μM FAD, 100 mM Tris pH 7.0, 0.01% Triton X-100
  IC50: 26.8 ± 5.3 nM
Tet(X4); up to a maximum concentration of 100 μM
  displacement of probe 6 / competitive binding (in words): clear dose-dependent displacement
[1]; read-out: Tet(X) Inhibitor MIC, alone, without L-arabinose induction
  MIC: 8 µg/mL
[1]; read-out: Tet(X) inhibitor MIC, alone, induced with 0.2%w/v L-arabinose
  MIC: 8 µg/mL
[1]; 0.2%w/v L-arabinose
  Combination (antibiotic/inhibitor) MIC: inhibitor: 2 µg/mL
  Combination (antibiotic/inhibitor) MIC: antibiotic: 0.5 µg/mL
  FICI: 0.4
  Outcome: Synergy (synergy (≤0.5))
[1]; without L-arabinose
  Combination (antibiotic/inhibitor) MIC: inhibitor: 8 µg/mL
  Combination (antibiotic/inhibitor) MIC: antibiotic: 0.25 µg/mL
  FICI: 2
  Outcome: indifferent (indifferent (0.5-4.0))
[2]; Acinetobacter baumannii, read-out: Tet(X) Inhibitor MIC
  MIC: 16 µg/mL
[2]; [5]
  Combination (Antibiotic/Inhibitor) MICs: inhibitor: 4 µg/mL
[2]; [6]
  Combination (Antibiotic/Inhibitor) MICs: antibiotic: 2 µg/mL
[2]; with tigecycline
  FICI: 0.5
  Outcome: indifferent (indifferent (0.5-4.0))
[3]; Escherichia coli, read-out: Tet(X) Inhibitor MIC, alone, E. coli T-24a
  MIC: 64 µg/mL
[3]; [5]
  Combination (Antibiotic/Inhibitor) MICs: inhibitor: 32 µg/mL
[3]; [6]
  Combination (Antibiotic/Inhibitor) MICs: antibiotic: 4 µg/mL
[3]; with tigecycline
  FICI: 0.8
  Outcome: indifferent (indifferent (0.5-4.0))
[4]; Proteus penneri, read-out: Tet(X) Inhibitor MIC
  MIC: 4 µg/mL
[4]; [5]
  Combination (Antibiotic/Inhibitor) MICs: inhibitor: 1 µg/mL
[4]; [6]
  Combination (Antibiotic/Inhibitor) MICs: antibiotic: 4 µg/mL
[4]; with tigecycline
  FICI: 0.8
  Outcome: indifferent (indifferent (0.5-4.0))
